Results published in ChEMBL document CHEMBL1140646, “Design of a partial PPARdelta agonist” (Bioorg Med Chem Lett, 2007).

How the values were obtained:
[1] = target: T1, Peroxisome proliferator-activated receptor delta (Homo sapiens, UniProt Q03181)
T1 sequence (Q03181 whole entry): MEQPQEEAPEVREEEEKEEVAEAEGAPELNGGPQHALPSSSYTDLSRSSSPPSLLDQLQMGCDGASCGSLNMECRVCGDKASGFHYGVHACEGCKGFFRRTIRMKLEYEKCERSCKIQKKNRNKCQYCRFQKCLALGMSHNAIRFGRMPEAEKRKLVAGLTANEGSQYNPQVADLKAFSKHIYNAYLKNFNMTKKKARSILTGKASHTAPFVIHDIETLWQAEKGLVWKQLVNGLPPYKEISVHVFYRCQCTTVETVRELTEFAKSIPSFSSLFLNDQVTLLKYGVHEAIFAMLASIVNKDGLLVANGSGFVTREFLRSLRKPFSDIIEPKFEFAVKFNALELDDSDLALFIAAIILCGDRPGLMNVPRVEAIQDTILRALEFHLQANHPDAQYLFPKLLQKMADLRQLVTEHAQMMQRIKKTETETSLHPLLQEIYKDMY

[2] = target: T2, Peroxisome proliferator-activated receptor alpha (Homo sapiens) (UniProt Q07869); assay: Agonist activity at human PPARalpha by transactivation assay relative to NNC61-4655; assay type: functional
T2 sequence (whole entry): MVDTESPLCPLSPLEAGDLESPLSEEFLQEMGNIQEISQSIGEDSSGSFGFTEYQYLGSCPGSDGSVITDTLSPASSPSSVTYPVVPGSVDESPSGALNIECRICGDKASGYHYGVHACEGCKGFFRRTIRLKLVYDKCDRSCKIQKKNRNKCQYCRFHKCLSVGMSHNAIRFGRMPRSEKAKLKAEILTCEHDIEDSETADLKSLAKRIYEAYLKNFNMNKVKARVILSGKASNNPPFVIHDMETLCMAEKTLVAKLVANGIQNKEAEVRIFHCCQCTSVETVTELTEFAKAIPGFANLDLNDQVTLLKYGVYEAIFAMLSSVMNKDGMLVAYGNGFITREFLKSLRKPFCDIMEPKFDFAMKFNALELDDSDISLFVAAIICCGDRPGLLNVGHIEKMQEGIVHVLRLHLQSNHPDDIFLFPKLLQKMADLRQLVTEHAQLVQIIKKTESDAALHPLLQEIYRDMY

[3] = target: T3, Peroxisome proliferator-activated receptor alpha (Homo sapiens, UniProt Q07869); assay: Agonist activity at human PPARalpha by transactivation assay; assay type: functional
T3 sequence (Q07869 whole entry): T2 sequence (whole entry)

[4] = target: T4, Peroxisome proliferator-activated receptor gamma (Homo sapiens, UniProt P37231); assay type: functional
T4 sequence (P37231 whole entry): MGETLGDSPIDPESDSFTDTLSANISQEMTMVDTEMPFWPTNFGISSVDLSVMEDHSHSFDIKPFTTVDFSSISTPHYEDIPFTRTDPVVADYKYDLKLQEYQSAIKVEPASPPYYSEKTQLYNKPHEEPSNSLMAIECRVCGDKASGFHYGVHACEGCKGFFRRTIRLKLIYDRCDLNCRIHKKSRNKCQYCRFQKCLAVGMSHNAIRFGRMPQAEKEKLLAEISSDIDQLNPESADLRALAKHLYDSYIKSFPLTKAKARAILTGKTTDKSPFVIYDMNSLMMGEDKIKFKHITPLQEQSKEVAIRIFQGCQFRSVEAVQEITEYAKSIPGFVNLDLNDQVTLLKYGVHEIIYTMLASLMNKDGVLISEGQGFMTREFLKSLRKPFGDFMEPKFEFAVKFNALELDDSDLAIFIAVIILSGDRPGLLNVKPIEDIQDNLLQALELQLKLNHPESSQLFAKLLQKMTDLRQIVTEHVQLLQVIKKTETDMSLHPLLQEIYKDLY

Row | Structure (SMILES) | EC50 [1] [nM] | Activity [2] [%] | EC50 [3] [nM] | EC50 [4] [nM]
1 | Cc1cc(Sc2cc(C#CCN3CCOCC3)nc(C#Cc3ccc(C(F)(F)F)cc3)c2)ccc1OCC(=O)O | 50 | 50 | 100 | 5500
2 | Cc1cc(SCc2sc(-c3ccc(C(F)(F)F)cc3)nc2C)ccc1OCC(=O)O | – | 68 | – | –
3 | O=C(O)COc1ccc(Sc2cc(C#CCN3CCOCC3)nc(C#Cc3ccc(C(F)(F)F)cc3)c2)c2c1CCC2 | 130 | < 10 | – | –
